Assay: gradient 5% acetonitrile 3 min, to 50% in 2 min, to 85% in 15 min, held 3 min, 100 µL/min
Conditions: column: Zorbax Extend-C18 2.1 x 50 mm; eluents: water / acetonitrile, 0.1% formic acid
Method in brief: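 Retention time was recorded from adduct peaks, which were picked computationally and each inspected manually. Pure standards ran in mixtures of ~100 molecules on HPLC coupled to a quadrupole time-of-flight mass spectrometer, in positive and negative ionization mode, through a Zorbax Extend-C18 column (2.1 × 50 mm, 1.8 μm) at 100 μL/min. Eluents were water and acetonitrile, each with 0.1% formic acid.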

RP-LC retention time [s]	SMILES
1080	O=c1c2sccc2n(Cc2nc(-c3ccc(OC(F)(F)F)cc3)no2)c(=O)n1-c1ccccc1
676	CCNc1cc(N2CCC(CCC(=O)NCc3ccc(C)cc3)CC2)ncn1
763	COCCN1C(=O)CCC2(C(=O)Nc3cc(OC)cc(OC)c3)CCCC=C12 (stereo not given)
1040	Cc1cccc(NC(=O)Cn2cnc3c(sc4nc(-c5ccccc5)ccc43)c2=O)c1
801	Cc1ccc(Cl)cc1NC(=O)N1CCC(OC2CCN(S(C)(=O)=O)CC2)CC1
796	CCCn1c(=O)c(-c2ccc(C(=O)NCCOC)cc2)nc2cccnc21
1060	COc1ccc(-c2noc(Cc3nnc(-c4ccc(Cl)cc4)o3)n2)cc1F
649	CCOC(=O)Cc1ccc(NC(=O)NCc2c(C)nn(CC)c2C)cc1
587	O=C(CN1CCN(Cc2nc(-c3ccc(N4CCCCC4)nc3)no2)CC1)N1CCCC1
591	CC(C)NC(=O)Nc1ccccc1NC(=O)c1cccnc1
986	O=S(=O)(c1cc(-c2nnc(C3CC3)o2)co1)N1CCN(c2ccccc2F)CC1
1080	CCCCCNC(=O)c1sc2ncccc2c1-n1cccc1
706	CCc1ccccc1S(=O)(=O)NCC(c1cccnc1)c1c[nH]c2ccccc12 (stereo not given)
914	CCCn1cc(CCNS(=O)(=O)c2cccc(Cl)c2C)c2cccnc21
1010	CCc1cccc(NC(=O)Cn2nc3c(Sc4ccccc4)nccn3c2=O)c1
661	COCCNC(=O)NCCS(=O)(=O)N1CCN(c2cccc(C)c2)CC1
561	Cc1nc2c(c(N(C)CC(=O)N3CCCC3)n1)CCC2
846	Cc1ccc2c(c1)NC(=O)c1cc(NC(=O)c3ccccc3Br)ccc1O2
819	Cc1cc(NC(=O)c2ccc3c(c2)nnn3Cc2ccccc2)no1
1180	CCC(C)n1c(=O)c2ccccc2n(Cc2nc(-c3cc(OC)cc(OC)c3)no2)c1=O (stereo not given)
870	O=C(OCc1ccc([N+](=O)[O-])cc1)c1ccc(S(=O)(=O)NCC2CCCO2)cc1 (stereo not given)
870	COc1ccc(C)c2sc(NS(=O)(=O)c3ccc(C)cc3)nc12
693	Cc1ccc(C)c(NC(=O)C(=O)NCC(c2ccc3c(c2)OCO3)N2CCOCC2)c1 (stereo not given)

RP-LC retention time [s]	SMILES
603	O=C(NC1CCN(Cc2ccccc2)CC1)C1CCN(c2ncnc3c2oc2ccccc23)CC1
819	CCOC(=O)c1[nH]c(C)c(CCC(=O)Nc2ccc3c(c2)OCO3)c1C
772	CN(CC1(C)CCOCC1)C(=O)CCc1c[nH]c2ccccc12
645	O=C(O)c1cn(-c2ccc3c(c2)OCO3)nn1
724	Cc1noc(COC2CCN(C(=O)Cc3c[nH]c4ccccc34)CC2)n1
771	Cc1ccc(NC(=O)Cc2c(C(=O)O)c(C)cn2C)c(C)c1
1280	COc1ccc(C)cc1NC(=O)C(=O)NCCc1csc(-c2ccc(Cl)cc2)n1
559	O=C(CC1CCN(C(=O)c2cc3ccccc3[nH]2)CC1)NCCN1CCCC1
597	CCN(C1CCOCC1)C1CN(S(=O)(=O)c2cccc(F)c2)C1
546	Cc1ccccc1-c1ccc(N2CCC(C(=O)Nc3cccnc3)CC2)nn1
1130	CCOc1ccc(Nc2nc(-c3nnn(-c4ccc(OCC)cc4)c3C)ns2)cc1
762	O=C(NCCn1c(=O)n(Cc2ccc(F)cc2)c2cccnc21)c1ccsc1
863	CCCNC(=O)N1CCCC1c1nc(-c2ccccc2C)no1 (stereo not given)
981	CC(NC(=O)c1cn(-c2cc(-c3nc(C4CC4)no3)ccn2)cn1)c1ccccc1 (stereo not given)
746	CCC(C)C(NC(=O)c1sccc1C)C(=O)Nc1nc2ccccc2[nH]1 (stereo not given)
1060	CCc1ccc(N2C(=O)C3N=NN(Cc4nc(-c5ccccc5Cl)no4)C3C2=O)cc1 (stereo not given)
977	Cc1ccc(CNC(=O)c2cc3c(s2)N(C)CCC3)cc1
747	O=C(NCc1csc(C2CCN(C(=O)Cc3ccc(Cl)cc3)CC2)n1)C1CC1
715	Cn1ccnc1C(=O)N1CC(n2cc(COc3ccc(F)cc3)nn2)C1
954	CC(=O)c1ccc(NS(C)(=O)=O)c(Oc2ccc(F)cc2F)c1
894	COc1ccc(CNC(=O)c2cc3sccc3n2C)cc1
606	Cc1ccccc1CN1C[C@@H]2C(=O)N(CCCN3CCCC3=O)C(=O)[C@@H]2C1
910	Cc1cccc(NC(=O)C2CCN(S(=O)(=O)c3ccc4c(c3)sc(=O)n4C)CC2)c1

RP-LC retention time [s]	SMILES
800	C=CCNC(=O)c1cn(-c2cc(-c3nc(C4CC4)no3)ccn2)cn1
955	CC(C)Cn1c(=O)c2cc(C(=O)N3CCSCC3)nn2c2ccccc21
797	COc1ccccc1NC(=O)NCCCn1c(C(F)(F)F)nc2cccnc21
972	O=C(Nc1ccc2c(c1)Cc1ccccc1-2)c1csc(Nc2ncccn2)n1
910	COc1ccccc1C(=O)Oc1ccc(N(C)C2=NS(=O)(=O)c3ccccc32)cc1
1010	Fc1cccc(-n2cc(-c3noc(-c4ccc5c(c4)OCO5)n3)nn2)c1
659	CCN1CCCn2nc(C3CCN(C(=O)c4cncc(Br)c4)CC3)cc2C1=O
751	CC1CCN(c2cc(-n3cnc(C(=O)Nc4ccc(N(C)C)cc4)c3)ncn2)CC1
878	Cc1sc(NC(=O)c2ccccc2F)nc1-c1ccc2c(c1)NC(=O)CO2
656	CCN(CC)CCNS(=O)(=O)c1cc(-c2nc(C)c(C)s2)sc1C
652	O=C(c1cn2ccccc2n1)N1CCN(c2ccc(F)cc2)CC1
596	Cc1ccnc(OCC(=O)NCCNc2cc(-n3nc(C)cc3C)nc(C)n2)n1
875	O=c1ccc(N2CCC(NS(=O)(=O)c3ccc(Cl)s3)CC2)nn1CC1CC1
883	CC1=C(c2ccc(F)cc2)S(=O)(=O)N=C1N1CCCN(C(=O)CC2CCCC2)CC1
968	Cc1ccc(CNC(=O)Cn2nc(C)c3sc(-c4ccccc4)nc3c2=O)cc1C
584	Cn1cc(CCN2CCC(C(=O)NCc3ccc4c(c3)OCO4)CC2)c2cccnc21
803	COc1ccc(-c2noc(Cn3ccn(-c4ccc(Cl)cc4)c(=O)c3=O)n2)cc1OC
666	COCCCN1C(=O)CC(N2CCN(c3ccc(F)cc3)CC2)C1=O (stereo not given)
641	COCc1ncc(C)n1CC1CCN(S(=O)(=O)c2cccc3nsnc23)CC1
636	COc1ccc(OC)c(NC(=O)c2cc(C)n(CCN(C)C)c2C)c1
888	CC(C)CCNC(=O)CN1C(=O)CC(c2cccs2)=Nc2ccccc21
1020	Cc1ccc(C)c(N2CCN(c3ccnc(SCC(=O)NC(C)CCc4ccccc4)n3)CC2)c1 (stereo not given)
630	O=C1NCCCn2cc(S(=O)(=O)Nc3ccccc3)cc21

RP-LC retention time [s]	SMILES
722	CCN(C(=O)Cc1c(C(=O)O)c(C)cn1C)c1ccccc1
802	O=C(Cc1nnc(-c2ccc3ncccc3c2)o1)Nc1cccc(C(F)(F)F)c1
996	CCN(CC)S(=O)(=O)c1ccc2c(c1)N(CC(=O)N1CCCCCC1)C(=O)C1CCCCN21 (stereo not given)
695	O=C(c1n[nH]c2c1CCCC2)N1CCCCC1
851	Cc1ccc(CNC(=O)c2[nH]c(C)c(S(=O)(=O)N3CCCC3)c2C)cc1
935	CCc1onc(C)c1C1CCCN1C(=O)Nc1cc(C)ccc1OC (stereo not given)
634	Cn1cc(CN2CC(F)(F)C[C@H]2COc2ccncc2)c2ccccc21
547	Cn1nc(C(=O)N2CCN(c3cc(-c4ccccc4)ncn3)CC2)ccc1=O
1330	O=S(=O)(c1ccc2c(c1)CCCC2)N1CCCC1c1nc(-c2cccc(F)c2)no1 (stereo not given)
637	Cc1ccc(S(=O)(=O)NCCn2c(C)cnc2C2CCC2)cc1F
1130	COc1ccc(-c2csc(C)n2)cc1S(=O)(=O)N1CC=C(c2ccccc2)CC1
740	COC(=O)C1=CN(C2CC2)c2cc(N3CCN(C(C)C)CC3)c(F)cc2S1(=O)=O
552	COc1ccc(-c2nnc3n2CCN(Cc2cn(C)nc2C)C3)cc1
979	Cc1cc(NC(=O)c2sc(-c3cn(C)c4ncccc34)nc2C)ccc1F
792	CCSCCOC(=O)C1=C(C)NC(=O)NC1c1cccc(OC)c1OC (stereo not given)
845	CCc1ccccc1NC(=O)N1CCCC1c1cc(C)no1 (stereo not given)
826	O=C(NCc1ccco1)c1cccc(Nc2c(-c3ccc(Cl)cc3)nc3cnccn23)c1
574	NC(=O)c1cc[nH]c1C1CCCN(S(=O)(=O)c2cnc[nH]2)C1 (stereo not given)
690	COc1cccc(OC)c1OCC(O)CN1CCN(c2ccc(F)cc2)CC1 (stereo not given)
622	CC(C)C(=O)NCCc1csc(C2CCCN(C(=O)C3CCCO3)C2)n1 (stereo not given)
892	O=C(c1ccoc1)N1CCCC(c2ccnc(-c3ccccc3)n2)C1 (stereo not given)

Source: the METLIN SMRT retention time set (Domingo-Almenara et al. 2019)
